In patent US20200236959A1, “METHOD FOR ANTI-SPROUTING TUBER TREATMENT WITH REDUCED AMOUNT OF CIPC” (priority 2014, published 2020):

What was measured:
[1] = test system: potatoes; details: hot fogging; cited from earlier work
[2] = test system: potatoes of the variety Bintje; assay: Fogging trial in potato storage cabins, sprout index (PCA scale); format: in vivo, Solanum tuberosum; details: fogging every 3 weeks during storage, PCA scale 1-9
Method: The storage system was designed to duplicate a large commercial storage facility in miniature. It consisted of 4 test cabins, with room for 4 boxes per level. In total there were 7 levels, and the boxes were placed in a stair-pattern, in clock-wise direction. Each cabin could be used to store up to 560 kg of potatoes per cabin. The dimensions of a cabin are depicted in FIG. 1.
During storage the air temperature within the storage system was kept between 5.0° C. and 9.5° C. The relative humidity was kept between 87% and 100%.
The application equipment used for hot fogging was IGEBA TF-35. The application equipment used for cold fogging was VEUGEN, type: FOGCOL. The operation pressure was 3.3 bar. […]
Around 15 minutes before treatment, Automatic Regulation was switched off and Manual Internal Ventilation was switched on (Force III). […] Note: Ventilation Force III means ˜900 m^3/h. • As the exact weight of tubers in the cell was known, the exact quantity of formulated product was calculated and prepared. • During spraying/fogging and till around 15 minutes after spraying, Internal • Ventilation was kept switched on (Force III) to assure a good contact between product and tubers. • Around 15 minutes after spraying, Internal Ventilation was switched off • The day after (minimum 12 hours after end of spraying) Automatic Regulation was switched on till next application or till end of trial […]

C=C(C)C1CC=C(C)C(=O)C1 (centres unmarked) [carvone]
anti-sprouting efficacy in combination with CIPC [1]: good result

C=C(C)C1CC=C(C)CC1 (centres unmarked) [Limonene, 1-methyl-4-(1-methylethenyl)-cyclohexene]
sprout growth (sprout index, FIG. 2) [2]: did not have any effect on sprout growth
